Among the data in patent US8269026B2, “Lupane derivatives useful for treating HIV” (priority 2008, dated 2012) are IC50 values, retold here.

pIC50: −log10 of the molar value.

In this test the test system is HIV-1 (HIVIIIB) replication in MT2 cell line. As to the kind of experiment: HIV-1 replication in MT2 cell line with and without 30% human serum (viral RT activity in supernatant). In kind it is cell-based. The following applies: Human immunodeficiency virus 1, MT2 cells, with 30% human serum, average IC50 if tested more than once, read-out: MT2 (HIVIIIB) with HS 30% IC50 range. An outline of the steps: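 MT2 cells infected with HIV-1 IIIB at MOI 0.5 for 3 h, washed, seeded at 0.5×10^6/ml in RPMI/10% FBS with serially diluted compound, with or without 30% human serum; medium and compound refreshed on day 3. RT activity in supernatant at day 5; IC50 and IC90 derived.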
With `CC(C)C1=C2[C@H]3CC[C@@H]4[C@@]5(C)CC[C@H](OC(=O)CC(C)(C)C(=O)O)C(C)(C)C5CC[C@@]4(C)[C@]3(C)CC[C@@]2(NC(=O)NC[C@@H]2CCCN2)CC1=O` (stereo partly drawn) [17-38, 3β-O-(3′,3′-Dimethylsuccinyl)-17β-(3-(S)-1-pyrrolidin-2-ylmethyl-ureido)-21-oxolup-18-ene], the pIC50 was above 6.70.

`CNC1CCN(C(=O)N[C@@]23CC[C@]4(C)C(CCC5[C@@]6(C)CC[C@H](OC(=O)CC(C)(C)C(=O)O)C(C)(C)C6CC[C@]54C)C2=C(C(C)C)C(=O)C3)CC1` (stereo partly drawn) [17-39, 3β-O-(3′,3′-Dimethylsuccinyl)-17β-[(4-methylamino-piperidine-1-carbonyl)-amino]-21-oxolup-18-ene]: the pIC50 was 6.00 to 6.70. Take `CC(C)C1=C2C3CCC4[C@@]5(C)CC[C@H](OC(=O)CC(C)(C)C(=O)O)C(C)(C)C5CC[C@@]4(C)[C@]3(C)CC[C@@]2(NC(=O)N2CC[C@@H](NC(=O)OC(C)(C)C)C2)CC1=O` (stereo partly drawn) [17-40, 3β-O-(3′,3′-Dimethylsuccinyl)-17β-[((R)-3-tert-butyloxycarbonylamino-pyrrolidine-1-carbonyl)-amino]-21-oxolup-18-ene]: the pIC50 is above 6.70. `CC(C)C1=C2C3CCC4[C@@]5(C)CC[C@H](OC(=O)CC(C)(C)C(=O)O)C(C)(C)C5CC[C@@]4(C)[C@]3(C)CC[C@@]2(NC(=O)N2CC[C@H](NC(=O)OC(C)(C)C)C2)CC1=O` (stereo partly drawn) [17-41, 3β-O-(3′,3′-Dimethylsuccinyl)-17β-[((S)-3-tert-butyloxycarbonylamino-pyrrolidine-1-carbonyl)-amino]-21-oxolup-18-ene]: the pIC50 is above 6.70.

As to `CC(C)C1=C2C3CCC4[C@@]5(C)CC[C@H](OC(=O)CC(C)(C)C(=O)O)C(C)(C)C5CC[C@@]4(C)[C@]3(C)CC[C@@]2(NC(=O)N2CC[C@@H](N)C2)CC1=O` (stereo partly drawn) [17-42, 3β-O-(3′,3′-Dimethylsuccinyl)-17β-[((R)-3-amino-pyrrolidine-1-carbonyl)-amino]-21-oxolup-18-ene], the pIC50 was 6.00 to 6.70. For `CC(C)C1=C2C3CCC4[C@@]5(C)CC[C@H](OC(=O)CC(C)(C)C(=O)O)C(C)(C)C5CC[C@@]4(C)[C@]3(C)CC[C@@]2(NC(=O)N2CC[C@H](N)C2)CC1=O` (stereo partly drawn) [17-43, 3β-O-(3′,3′-Dimethylsuccinyl)-17β-[((S)-3-amino-pyrrolidine-1-carbonyl)-amino]-21-oxolup-18-ene] the value was above 6.70; for `CC(C)C1=C2[C@H]3CC[C@@H]4[C@@]5(C)CC[C@H](OC(=O)CC(C)(C)C(=O)O)C(C)(C)[C@@H]5CC[C@@]4(C)[C@]3(C)CC[C@@]2(NC(=O)Nc2cncnc2)CC1=O` [17-44, 3β-O-(3′,3′-Dimethylsuccinyl)-17β-(N′-pyrimidin-5-yl-ureido)-21-oxolup-18-ene], above 6.70; for `Cc1nnc(NC(=O)N[C@@]23CC[C@]4(C)C(CCC5[C@@]6(C)CC[C@H](OC(=O)CC(C)(C)C(=O)O)C(C)(C)C6CC[C@]54C)C2=C(C(C)C)C(=O)C3)s1` (stereo partly drawn) [17-45, 3β-O-(3′,3′-Dimethylsuccinyl)-17β-(N′-5-methyl-[1,3,4]thiadiazol-2-yl-ureido)-21-oxolup-18-ene], above 6.70. In the case of `CC(C)C1=C2[C@H]3CC[C@@H]4[C@@]5(C)CC[C@H](OC(=O)CC(C)(C)C(=O)O)C(C)(C)[C@@H]5CC[C@@]4(C)[C@]3(C)CC[C@@]2(NC(=O)Nc2ccncn2)CC1=O` [17-46, 3β-O-(3′,3′-Dimethylsuccinyl)-17β-(N′-pyrimidin-4-yl-ureido)-21-oxolup-18-ene], the pIC50 was above 6.70. With `Cc1cc(NC(=O)N[C@@]23CC[C@]4(C)[C@H](CC[C@@H]5[C@@]6(C)CC[C@H](OC(=O)CC(C)(C)C(=O)O)C(C)(C)[C@@H]6CC[C@]54C)C2=C(C(C)C)C(=O)C3)ccn1` [17-47, 3β-O-(3′,3′-Dimethylsuccinyl)-17β-(N′-2-methylpyridin-4-yl-ureido)-21-oxolup-18-ene] the figure was above 6.70; with `CC(C)C1=C2C3CCC4[C@@]5(C)CC[C@H](OC(=O)CC(C)(C)C(=O)O)C(C)(C)C5CC[C@@]4(C)[C@]3(C)CC[C@@]2(NC(=O)N(C)C)CC1=O` (stereo partly drawn) [17-48, 3β-O-(3′,3′-Dimethylsuccinyl)-17β-[N′,N′-dimethyl-ureido]-21-oxolup-18-ene], above 6.70. As to `CC(C)C1=C2C3CCC4[C@@]5(C)CC[C@H](OC(=O)CC(C)(C)C(=O)O)C(C)(C)C5CC[C@@]4(C)[C@]3(C)CC[C@@]2(NC(=O)N[C@@H](C)C(F)(F)F)CC1=O` (stereo partly drawn) [17-50, 3β-O-(3′,3′-Dimethylsuccinyl)-17β-[N′-((S)-2,2,2-trifluoro-1-methyl-ethyl)-ureido]-21-oxolup-18-ene], the pIC50 was above 6.70. For `CC(C)C1=C2C3CCC4[C@@]5(C)CC[C@H](OC(=O)CC(C)(C)C(=O)O)C(C)(C)C5CC[C@@]4(C)[C@]3(C)CC[C@@]2(NC(=O)N[C@H](C)C(F)(F)F)CC1=O` (stereo partly drawn) [17-51, 3β-O-(3′,3′-Dimethylsuccinyl)-17β-[N′-((R)-2,2,2-trifluoro-1-methyl-ethyl)-ureido]-21-oxolup-18-ene] the value was above 6.70.

Consider `CC(C)C1=C2C3CCC4[C@@]5(C)CC[C@H](OC(=O)CC(C)(C)C(=O)O)C(C)(C)C5CC[C@@]4(C)[C@]3(C)CC[C@@]2(NC(=O)NCc2ccncn2)CC1=O` (stereo partly drawn) [17-52, 3β-O-(3′,3′-Dimethylsuccinyl)-17β-[N′-(pyrimidin-4-ylmethyl)ureido]-21-oxolup-18-ene], for which the pIC50 was above 6.70.

For `CC(C)C1=C2C3CCC4[C@@]5(C)CC[C@H](OC(=O)CC(C)(C)C(=O)O)C(C)(C)C5CC[C@@]4(C)[C@]3(C)CC[C@@]2(NC(=O)N[C@@H](C)C2CCCCC2)CC1=O` (stereo partly drawn) [17-54, 3β-O-(3′,3′-Dimethylsuccinyl)-17β-[N′-((S)-1-cyclohexyl-ethyl)ureido]-21-oxolup-18-ene], the pIC50 was above 6.70. With `CC(C)C1=C2C3CCC4[C@@]5(C)CC[C@H](OC(=O)CC(C)(C)C(=O)O)C(C)(C)C5CC[C@@]4(C)[C@]3(C)CC[C@@]2(NC(=O)N[C@H](C)C2CCCCC2)CC1=O` (stereo partly drawn) [17-55, 3β-O-(3′,3′-Dimethylsuccinyl)-17β-[N′-((R)-1-cyclohexyl-ethyl)ureido]-21-oxolup-18-ene] the figure was above 6.70; with `CC(C)C1=C2C3CCC4[C@@]5(C)CC[C@H](OC(=O)CC(C)(C)C(=O)O)C(C)(C)C5CC[C@@]4(C)[C@]3(C)CC[C@@]2(NC(=O)NC(C)(C)C(F)(F)F)CC1=O` (stereo partly drawn) [17-56, 3β-O-(3′,3′-Dimethylsuccinyl)-17β-[N′-(2,2,2-trifluoro-1,1-dimethyl-ethyl)ureido]-21-oxolup-18-ene], above 6.70; with `CC(C)C1=C2C3CCC4[C@@]5(C)CC[C@H](OC(=O)CC(C)(C)C(=O)O)C(C)(C)C5CC[C@@]4(C)[C@]3(C)CC[C@@]2(NC(=O)NC2CCC(F)(F)CC2)CC1=O` (stereo partly drawn) [17-57, 3β-O-(3′,3′-Dimethylsuccinyl)-17β-[N′-(4,4-difluorocyclohexyl)ureido]-21-oxolup-18-ene], above 6.70. With `CC(C)C1=C2C3CCC4[C@@]5(C)CC[C@H](OC(=O)CC(C)(C)C(=O)O)C(C)(C)C5CC[C@@]4(C)[C@]3(C)CC[C@@]2(NC(=O)N2CCC(F)(F)C2)CC1=O` (stereo partly drawn) [17-58] the figure was above 6.70; with `CC(C)C1=C2C3CCC4[C@@]5(C)CC[C@H](OC(=O)CC(C)(C)C(=O)O)C(C)(C)C5CC[C@@]4(C)[C@]3(C)CC[C@@]2(NC(=O)N2CCC(F)(F)CC2)CC1=O` (stereo partly drawn) [17-59, 3β-O-(3′,3′-Dimethylsuccinyl)-17β-[(4,4-difluoro-piperidine-1-carbonyl)-amino]-21-oxolup-18-ene], above 6.70. `CC(C)C1=C2C3CCC4[C@@]5(C)CC[C@H](OC(=O)CC(C)(C)C(=O)O)C(C)(C)C5CC[C@@]4(C)[C@]3(C)CC[C@@]2(NC(=O)NCC2CCC(F)(F)CC2)CC1=O` (stereo partly drawn) [17-60, 3β-O-(3′,3′-Dimethylsuccinyl)-17β-[N′-(4,4-difluoro-cyclohexyl-methyl)ureido]-21-oxolup-18-ene]: the pIC50 was above 6.70. As to `CC(C)C1=C2C3CCC4[C@@]5(C)CC[C@H](OC(=O)CC(C)(C)C(=O)O)C(C)(C)C5CC[C@@]4(C)[C@]3(C)CC[C@@]2(NC(=O)N[C@@H](C)c2ccccc2)CC1=O` (stereo partly drawn) [17-61, 3β-O-(3′,3′-Dimethylsuccinyl)-17β-[N′-((S)-1-phenyl-ethyl)-ureido]-21-oxolup-18-ene], the pIC50 is above 6.70.

`CC(C)C1=C2C3CCC4[C@@]5(C)CC[C@H](OC(=O)CC(C)(C)C(=O)O)C(C)(C)C5CC[C@@]4(C)[C@]3(C)CC[C@@]2(NC(=O)N[C@H](C)c2ccccc2)CC1=O` (stereo partly drawn) [17-62, 3β-O-(3′,3′-Dimethylsuccinyl)-17β-[N′-((R)-1-phenyl-ethyl)-ureido]-21-oxolup-18-ene]: the pIC50 was above 6.70.

As to `CC(C)C1=C2C3CCC4[C@@]5(C)CC[C@H](OC(=O)CC(C)(C)C(=O)O)C(C)(C)C5CC[C@@]4(C)[C@]3(C)CC[C@@]2(NC(=O)NC(C)(C)c2ccccc2)CC1=O` (stereo partly drawn) [17-63, 3β-O-(3′,3′-Dimethylsuccinyl)-17β-[N′-(1-methyl-1-phenyl-ethyl)-ureido]-21-oxolup-18-ene], the negative-log IC50 (pIC50) was above 6.70.

Consider `CC(C)C1=C2C3CCC4[C@@]5(C)CC[C@H](OC(=O)CC(C)(C)C(=O)O)C(C)(C)C5CC[C@@]4(C)[C@]3(C)CC[C@@]2(NC(=O)NCc2cccs2)CC1=O` (stereo partly drawn) [17-64, 3β-O-(3′,3′-Dimethylsuccinyl)-17β-[N′-(thiophen-2-ylmethyl)-ureido]-21-oxolup-18-ene], for which the pIC50 is above 6.70. With `Cc1nnc(CNC(=O)N[C@@]23CC[C@]4(C)C(CCC5[C@@]6(C)CC[C@H](OC(=O)CC(C)(C)C(=O)O)C(C)(C)C6CC[C@]54C)C2=C(C(C)C)C(=O)C3)o1` (stereo partly drawn) [17-65, 3β-O-(3′,3′-Dimethylsuccinyl)-17β-[N′-(2-methyl-[1,3,4]oxadiazol-2-ylmethyl)-ureido]-21-oxolup-18-ene] the figure was above 6.70; with `CC(C)C1=C2C3CCC4[C@@]5(C)CC[C@H](OC(=O)CC(C)(C)C(=O)O)C(C)(C)C5CC[C@@]4(C)[C@]3(C)CC[C@@]2(NC(=O)NC2(c3ccccc3)CC2)CC1=O` (stereo partly drawn) [17-66, 3β-O-(3′,3′-Dimethylsuccinyl)-17β-[N′-(1-phenyl-cyclopropyl)-ureido]-21-oxolup-18-ene], above 6.70.

The term pIC50 denotes −log10 of the IC50, conventionally taken in molar units.
